The source made the active and inactive calls. No cut-off for these calls is given here.
Tests used:
SiHa [1] = experiment: Synergistic antiproliferative activity against human SiHa cells assessed as combination index at 1 uM incubated for 72 hrs in presence of 1 uM cisplatin by CCK-8 assay; assay type: functional
SiHa [2] = experiment: Induction of cell cycle arrest in human SiHa cells assessed as accumulation of cells at S pahse at 0.05 uM incubated after 48 hrs by PI staining based flow cytometry (reference value: 8.51 %); assay type: functional
SiHa [3] = experiment: Synergistic antiproliferative activity against human SiHa cells assessed as combination index at 1 uM incubated for 72 hrs in presence of 3.16 uM cisplatin by CCK-8 assay; assay type: functional
[4] = target: T1, Protein cereblon/Heat shock protein HSP 90-alpha/Heat shock protein HSP 90-beta (Homo sapiens) (UniProt P07900+P08238+Q96SW2); experiment: Protac activity at CRBN/Hsp90 in human SiHa cells assessed as decrease in AKT protein expression level incubated for 10 hrs by Western blot analysis; assay type: cell-based; conditions: dose 0.01-1 µM
SiHa [5] = experiment: Synergistic antiproliferative activity against human SiHa cells assessed as combination index at 5 uM incubated for 72 hrs in presence of 0.1 uM cisplatin by CCK-8 assay; assay type: functional
SiHa [6] = experiment: Synergistic antitumor activity against human SiHa cells xenografted in BALB/c nude mouse assessed as reduction in Ki67 protein expression at 2 mg/kg, ip co-treated with cisplatin separately for every two days by immunohistochemical analysis; assay type: functional, organism-based
SiHa [7] = experiment: Synergistic antiproliferative activity against human SiHa cells assessed as combination index at 10 uM incubated for 72 hrs in presence of 0.03 uM cisplatin by CCK-8 assay; assay type: functional
[8] = Toxicity in BALB/c nude mouse xenografted with human SiHa cells assessed as body weight weight loss at 2 mg/kg, ip co-treated with cisplatin separately for every two days; assay type: organism-based; conditions: in vivo
SiHa [9] = experiment: Induction of apoptosis in human SiHa cells assessed as late apoptotic cells at 2.5 uM incubated after 48 hrs by annexin V-FITC/PI staining based flow cytometry (reference value: 6.93 %); assay type: functional
SiHa [10] = experiment: Synergistic antiproliferative activity against human SiHa cells assessed as combination index at 0.1 uM incubated for 72 hrs in presence of 0.32 uM cisplatin by CCK-8 assay; assay type: functional
SiHa [11] = experiment: Synergistic antiproliferative activity against human SiHa cells assessed as combination index at 5 uM incubated for 72 hrs in presence of 0.01 uM cisplatin by CCK-8 assay; assay type: functional
[12] = target: Serine/threonine-protein kinase AKT (Homo sapiens) (UniProt P31751+Q9Y243+P31749); experiment: Inhibition of AKT phosphorylation in human SiHa cells incubated for 10 hrs by Western blot analysis; assay type: cell-based; conditions: dose 0.01-1 µM
HeLa = experiment: Antiproliferative activity against human HeLa cells assessed as reduction in cell viability incubated for 72 hrs by CCK-8 assay; assay type: functional, cell-based
SiHa [13] = experiment: Synergistic antiproliferative activity against human SiHa cells assessed as combination index at 0.5 uM incubated for 72 hrs in presence of 0.1 uM cisplatin by CCK-8 assay; assay type: functional
SiHa [14] = experiment: Synergistic antiproliferative activity against human SiHa cells assessed as combination index at 0.05 uM incubated for 72 hrs in presence of 1 uM cisplatin by CCK-8 assay; assay type: functional
[15] = target: Serine/threonine-protein kinase mTOR (Homo sapiens) (UniProt P42345); experiment: Inhibition of mTOR phosphorylation in human SiHa cells incubated for 10 hrs by Western blot analysis; assay type: cell-based; conditions: dose 0.01-1 µM
SiHa [16] = experiment: Induction of apoptosis in human SiHa cells assessed as early apoptotic cells at 2.5 uM incubated after 48 hrs by annexin V-FITC/PI staining based flow cytometry (reference value: 2.05 %); assay type: functional
SiHa [17] = experiment: Synergistic antiproliferative activity against human SiHa cells assessed as combination index at 10 uM incubated for 72 hrs in presence of 10 uM cisplatin by CCK-8 assay; assay type: functional
SiHa [18] = experiment: Synergistic antiproliferative activity against human SiHa cells assessed as combination index at 10 uM incubated for 72 hrs in presence of 0.01 uM cisplatin by CCK-8 assay; assay type: functional
[19] = target: T1, Protein cereblon/Heat shock protein HSP 90-alpha/Heat shock protein HSP 90-beta (Homo sapiens); experiment: Protac activity at CRBN/Hsp90 in human SiHa cells assessed as induction of Hsp90 degradation at 0.05 uM incubated for 2 hrs in presence of MG-132 by Western blot analysis; assay type: cell-based
SiHa [20] = experiment: Synergistic antiproliferative activity against human SiHa cells assessed as combination index at 0.75 uM incubated for 72 hrs in presence of 1 uM cisplatin by CCK-8 assay; assay type: functional
SiHa [21] = experiment: Synergistic antiproliferative activity against human SiHa cells assessed as combination index at 5 uM incubated for 72 hrs in presence of 0.32 uM cisplatin by CCK-8 assay; assay type: functional
SiHa [22] = experiment: Induction of apoptosis in human SiHa cells assessed as viable cells at 1 uM incubated after 48 hrs by annexin V-FITC/PI staining based flow cytometry (reference value: 90.4 %); assay type: functional; conditions: read-out: Activity
SiHa [23] = experiment: Synergistic antiproliferative activity against human SiHa cells assessed as combination index at 10 uM incubated for 72 hrs in presence of 1 uM cisplatin by CCK-8 assay; assay type: functional
SiHa [24] = experiment: Synergistic antiproliferative activity against human SiHa cells assessed as combination index at 0.1 uM incubated for 72 hrs in presence of 10 uM cisplatin by CCK-8 assay; assay type: functional
[25] = target: T1, Protein cereblon/Heat shock protein HSP 90-alpha/Heat shock protein HSP 90-beta (Homo sapiens); experiment: Protac activity at CRBN/Hsp90 in human SiHa cells assessed as induction of Hsp90 degradation at 0.05 uM incubated for 2 hrs in presence of bortezomib by Western blot analysis; assay type: cell-based
SiHa [26] = experiment: Induction of cell cycle arrest in human SiHa cells assessed as accumulation of cells at G2/M pahse at 1 uM incubated after 48 hrs by PI staining based flow cytometry (reference value: 7.37 %); assay type: functional
SiHa [27] = experiment: Synergistic antiproliferative activity against human SiHa cells assessed as combination index at 0.5 uM incubated for 72 hrs in presence of 0.03 uM cisplatin by CCK-8 assay; assay type: functional
SiHa [28] = experiment: Antiproliferative activity against human SiHa cells assessed as reduction in cell viability incubated for 72 hrs by CCK-8 assay; assay type: functional, cell-based
SiHa [29] = experiment: Induction of apoptosis in human SiHa cells assessed as viable cells at 2.5 uM incubated after 48 hrs by annexin V-FITC/PI staining based flow cytometry (reference value: 90.4 %); assay type: functional; conditions: read-out: Activity
SiHa [30] = experiment: Synergistic antiproliferative activity against human SiHa cells assessed as combination index at 1 uM incubated for 72 hrs in presence of 10 uM cisplatin by CCK-8 assay; assay type: functional
SiHa [31] = experiment: Synergistic antiproliferative activity against human SiHa cells assessed as combination index at 0.75 uM incubated for 72 hrs in presence of 0.32 uM cisplatin by CCK-8 assay; assay type: functional
SiHa [32] = experiment: Synergistic antiproliferative activity against human SiHa cells assessed as combination index at 1 uM incubated for 72 hrs in presence of 0.32 uM cisplatin by CCK-8 assay; assay type: functional
SiHa [33] = experiment: Synergistic antiproliferative activity against human SiHa cells assessed as combination index at 0.5 uM incubated for 72 hrs in presence of 0.01 uM cisplatin by CCK-8 assay; assay type: functional
SiHa [34] = experiment: Synergistic antiproliferative activity against human SiHa cells assessed as combination index at 0.75 uM incubated for 72 hrs in presence of 0.03 uM cisplatin by CCK-8 assay; assay type: functional

Serine/threonine-protein kinase AKT (Homo sapiens), sequence (P31749 whole entry, looked up): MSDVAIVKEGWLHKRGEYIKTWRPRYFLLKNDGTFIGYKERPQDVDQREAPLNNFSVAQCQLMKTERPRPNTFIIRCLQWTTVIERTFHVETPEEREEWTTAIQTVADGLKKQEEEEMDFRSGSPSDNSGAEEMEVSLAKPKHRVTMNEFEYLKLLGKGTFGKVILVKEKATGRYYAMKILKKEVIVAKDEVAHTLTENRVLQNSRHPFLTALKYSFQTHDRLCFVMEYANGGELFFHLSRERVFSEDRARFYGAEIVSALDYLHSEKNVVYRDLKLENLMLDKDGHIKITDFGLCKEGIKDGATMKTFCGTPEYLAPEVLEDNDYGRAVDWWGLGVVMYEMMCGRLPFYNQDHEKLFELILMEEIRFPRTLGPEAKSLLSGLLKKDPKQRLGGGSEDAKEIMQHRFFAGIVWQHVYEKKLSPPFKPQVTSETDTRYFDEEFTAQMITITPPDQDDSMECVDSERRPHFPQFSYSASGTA
Serine/threonine-protein kinase AKT (Homo sapiens), sequence (P31751 whole entry, looked up): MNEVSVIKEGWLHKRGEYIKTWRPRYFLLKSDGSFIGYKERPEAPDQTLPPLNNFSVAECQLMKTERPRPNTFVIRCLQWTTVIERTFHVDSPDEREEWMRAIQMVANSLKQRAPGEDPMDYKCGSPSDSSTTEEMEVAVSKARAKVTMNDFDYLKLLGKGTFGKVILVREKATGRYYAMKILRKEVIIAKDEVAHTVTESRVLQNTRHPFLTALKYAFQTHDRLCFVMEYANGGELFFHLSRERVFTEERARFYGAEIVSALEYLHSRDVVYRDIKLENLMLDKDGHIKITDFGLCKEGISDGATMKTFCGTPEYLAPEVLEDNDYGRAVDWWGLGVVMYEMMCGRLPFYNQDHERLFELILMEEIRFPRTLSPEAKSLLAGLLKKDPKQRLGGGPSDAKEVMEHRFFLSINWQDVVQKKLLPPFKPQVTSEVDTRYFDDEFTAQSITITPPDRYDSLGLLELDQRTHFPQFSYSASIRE
Serine/threonine-protein kinase AKT (Homo sapiens), sequence (Q9Y243 whole entry, looked up): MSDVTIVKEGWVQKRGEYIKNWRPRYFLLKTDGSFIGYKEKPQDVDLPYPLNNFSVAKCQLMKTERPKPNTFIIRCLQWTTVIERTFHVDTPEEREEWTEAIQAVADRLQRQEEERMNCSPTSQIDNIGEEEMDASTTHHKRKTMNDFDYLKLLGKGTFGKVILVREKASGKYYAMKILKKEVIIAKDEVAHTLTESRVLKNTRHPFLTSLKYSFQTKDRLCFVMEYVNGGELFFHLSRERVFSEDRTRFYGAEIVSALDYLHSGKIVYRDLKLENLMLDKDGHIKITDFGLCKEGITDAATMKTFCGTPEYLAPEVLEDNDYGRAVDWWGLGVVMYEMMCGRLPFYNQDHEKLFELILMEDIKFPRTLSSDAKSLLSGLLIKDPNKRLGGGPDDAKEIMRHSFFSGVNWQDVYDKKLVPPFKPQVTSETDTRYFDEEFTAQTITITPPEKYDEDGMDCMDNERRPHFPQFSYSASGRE

SMILES: CC1(C)CC(=O)c2c(C(F)(F)F)nn(-c3ccc(C(N)=O)c(N[C@H]4CC[C@H](OC(=O)CNC(=O)CCCCCCCNc5cccc6c5CN(C5CCC(=O)NC5=O)C6=O)CC4)c3)c2C1 (stereo not given in full)
- CI (SiHa [1]): 0.18
- Activity (SiHa [2]): 10.84%
- CI (SiHa [3]): 0.18
- Activity [4]: Dose-Dependent Effect
- CI (SiHa [5]): 1.01
- Activity (SiHa [6]): Active
- CI (SiHa [7]): 2.11
- Activity [8]: Non-Toxic
- Activity (SiHa [9]): 22.71%
- CI (SiHa [10]): 0.45
- CI (SiHa [11]): 1.02
- inhibition [12]: Active
- IC50 (HeLa): 80 nM
- CI (SiHa [13]): 0.13
- CI (SiHa [14]): 0.74
- inhibition [15]: Active
- Activity (SiHa [16]): 21.35%
- CI (SiHa [17]): 1.1
- CI (SiHa [18]): 2.19
- Activity [19]: inactive
- CI (SiHa [20]): 0.17
- CI (SiHa [21]): 0.95
- viability at 1 µM (SiHa [22]): 59%
- CI (SiHa [23]): 1.78
- CI (SiHa [24]): 0.43
- Activity [25]: inactive
- Activity (SiHa [26]): 27.12%
- CI (SiHa [27]): 0.14
- IC50 (SiHa [28]): 50 nM
- viability at 2.5 µM (SiHa [29]): 55.3%
- CI (SiHa [30]): 0.17
- CI (SiHa [31]): 0.17
- CI (SiHa [32]): 0.2
- CI (SiHa [33]): 0.18
- CI (SiHa [34]): 0.19

From ChEMBL document CHEMBL5579824, “Novel Hsp90-Targeting PROTACs: Enhanced synergy with cisplatin in combination therapy of cervical cancer” (Eur J Med Chem, 2024)
